Results on 39 compounds are retold here after ChEMBL document CHEMBL4715852, “Advances in the Design of Genuine Human Tyrosinase Inhibitors for Targeting Melanogenesis and Related Pigmentations” (J Med Chem, 2020).

The target of assay [1] is T1, Tyrosinase (Homo sapiens, UniProt P14679).
T1 sequence (P14679 whole entry): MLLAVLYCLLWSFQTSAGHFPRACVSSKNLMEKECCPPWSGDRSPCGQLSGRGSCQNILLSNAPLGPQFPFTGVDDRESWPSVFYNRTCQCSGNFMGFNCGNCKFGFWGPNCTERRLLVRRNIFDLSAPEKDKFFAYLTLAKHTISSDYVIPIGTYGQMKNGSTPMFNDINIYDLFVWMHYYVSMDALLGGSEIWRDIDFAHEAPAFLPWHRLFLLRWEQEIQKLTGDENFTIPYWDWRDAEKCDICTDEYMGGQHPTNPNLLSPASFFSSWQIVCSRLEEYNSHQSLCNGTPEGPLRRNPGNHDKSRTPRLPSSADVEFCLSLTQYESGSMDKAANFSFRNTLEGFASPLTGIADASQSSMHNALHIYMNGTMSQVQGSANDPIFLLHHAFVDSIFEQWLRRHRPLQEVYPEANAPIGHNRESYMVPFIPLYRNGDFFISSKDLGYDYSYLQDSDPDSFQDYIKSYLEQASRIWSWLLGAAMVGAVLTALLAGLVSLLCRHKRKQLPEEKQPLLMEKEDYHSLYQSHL
In words: Inhibition of human tyrosinase using L- DOPA as substrate by MBTH based assay.

In assay [2] the target is T1, Tyrosinase. As to the kind of experiment: Inhibition of tyrosinase in human melanocytes using L-[3,5-3H]-tyrosine as substrate incubated for 1 to 3 days by liquid scintillation counting method. It counts as cell-based, Melanocyte.
Assay [3] addresses T1, Tyrosinase. In words: Inhibition of human HMV-II cell derived tyrosinase using DOPA as substrate incubated for 5 mins by light absorbance method. Further details: species or system HMV-2 cell line.
Assay [4] concerns the target T1, Tyrosinase. As to the kind of experiment: Inhibition of human His-tagged tyrosinase expressed in HEK 293 cells using L-DOPA as substrate by Lineweaver-Burk plot analysis. Further details: species or system HEK293.
The target of assay [5] is T1, Tyrosinase. In words: biochemical.
Description: Inhibition of human His-tagged tyrosinase expressed in HEK 293 cells using L-DOPA as substrate by MBTH based assay
Assay [6] addresses T2, Mushroom tyrosinase (Agaricus bisporus, UniProt O42713+Q00024+C7FF04+C7FF05). In words: Inhibition of mushroom tyrosinase using L-tyrosine as substrate by spectrophotometric method.
Assay [7] addresses T1, Tyrosinase. As to the kind of experiment: Inhibition of tyrosinase in human neonatal foreskin epidermal melanocyte cells using L-tyrosine and L-DOPA as substrate preincubated for 2 days followed by cell lysis and subsequent substrate addition and measured after 3 hr by spectrophotometric method. It counts as cell-based.
In assay [8] the target is T1, Tyrosinase. As to the kind of experiment: Inhibition of human tyrosinase expressed in human SKMEL188 cell lysate using L- DOPA as substrate incubated for 8 hrs. Type of assay: subcellular, SK-MEL-188.
The target in assay [9] is T1, Tyrosinase. In words: Inhibition of human tyrosinase expressed in HEK293 cells using L-tyrosine as substrate and DOPA as cofactor by indirect spectrophotometric method. Type of assay: cell-based.
The target of assay [10] is T1, Tyrosinase. As to the kind of experiment: Inhibition of tyrosinase in human neonatal foreskin epidermal melanocyte cells using L-DOPA as substrate preincubated for 24 hrs followed by cell lysis and subsequent substrate addition and measured after 1 hr by ELISA. Type of assay: cell-based. (In general: In an ELISA, binding on a coated surface is turned into a signal by an enzyme label.)

Assay [11] concerns the target T1, Tyrosinase. As to the kind of experiment: Inhibition of human tyrosinase expressed in HEK293 cells. Type of assay: cell-based.
The target in assay [12] is T2, Mushroom tyrosinase. As to the kind of experiment: Inhibition of mushroom tyrosinase.
For assay [13], the target named is T1, Tyrosinase. As to the kind of experiment: Inhibition of human HMV-II cell derived tyrosinase using L-DOPA as substrate by light absorbance method. Type of assay: cell-based, HMV-2 cell line.
Assay [14] has as its target T1, Tyrosinase. In words: Inhibition of human tyrosinase expressed in Escherichia coli.
Assay [15] has as its target T2, Mushroom tyrosinase.
Description: Competitive inhibition of White button mushroom tyrosinase using L-DOPA as substrate by Lineweaver-Burk plot
The target of assay [16] is T1, Tyrosinase. As to the kind of experiment: Mixed inhibition of recombinant human tyrosinase expressed in baculovirus infected sf9 cells using L-DOPA as substrate by double-reciprocal plot analysis.
The target in assay [17] is T1, Tyrosinase. In words: Inhibition of tyrosinase in neonatal human epidermal melanocytes. The arrangement: species or system Melanocyte.
Assay [18] addresses T1, Tyrosinase. In words: Inhibition of tyrosinase in human melanocyte cells using L-DOPA as substrate by absorbance method. Type of assay: cell-based.

Broadly, the Ki is the equilibrium dissociation constant of an inhibitor or competing ligand from its target. Broadly, the IC50 is the concentration needed to halve the response being measured. A lower IC50 goes with greater potency.

As for `CCSCc1cc(=O)c(O)co1`, the Ki at Tyrosinase [1] came to 19 µM.
In turn, `CCCSCc1cc(=O)c(O)co1` registered a Ki on Tyrosinase [1] of 27 µM.
On Tyrosinase [1], `CCCCCSCc1cc(=O)c(O)co1` returned a Ki of 46 µM.
At Tyrosinase [1], `Oc1ccc(-c2csc(Nc3ncccn3)n2)c(O)c1` displayed an IC50 of 3.2 µM.
On to `CC(C)(C)c1ccc(O)cc1`, for which the IC50 on Tyrosinase [2] came to 10 µM.
As to `Oc1ccc2cc[nH]c2c1`, the IC50 against Tyrosinase [3] amounted to 22 µM.
On to `CC(c1ccccc1)c1ccc(O)cc1O` (configuration not stated), for which, on Tyrosinase [4], the Ki was 24 µM. Further, the IC50 was 131 µM on Tyrosinase [5] and 0.3 µM at Mushroom tyrosinase [6].
As to `C=C1OC(=O)/C(=C\CCCCCCCCCCCCC)[C@H]1O`, the IC50 at Tyrosinase [7] came out at 1 µM.
As to `CC(C)C(=O)Nc1nc(-c2ccc(O)cc2O)cs1`, the Ki on Tyrosinase [4] came to 0.25 µM. On Tyrosinase [5], this compound yielded an IC50 of 1.1 µM.
`N[C@H](Cc1ccccc1)C(=O)O[C@H]1CC[C@H](c2ccc(O)cc2O)CC1` came in with an IC50 on Tyrosinase [8] of 2 µM.
Take `CC(C)SCc1cc(=O)c(O)co1`: at Tyrosinase [1], the affinity corresponds to a Ki of 50 µM.
Compound `O=c1cc(-c2ccc(O)c(O)c2)oc2cc(OS(=O)(=O)O)cc(O)c12` gave a 50% inhibitory concentration (IC50) against Tyrosinase [9] of 16 µM.
In turn, `COc1cc(/C=C\C(=O)NCCCCNC(=O)/C=C/c2ccc(O)c(OC)c2)ccc1O` came in with an IC50 against Tyrosinase [10] of 85 µM.
Turning to `CSCc1cc(=O)c(O)co1`, the Ki on Tyrosinase [1] is 46 µM.
`O=C(Nc1nc(-c2ccc(O)cc2O)cs1)C1CCCCC1` gave an IC50 against Tyrosinase [1] of 4.6 µM.
Take `O=C(/C=C/c1ccc(O)cc1)OC1=C(O)C(=O)O[C@@H]1[C@H](O)CO`: the 50% inhibitory concentration (IC50) against Tyrosinase [11] turned out to be 10 µM.
At Tyrosinase [11], `O=C(/C=C/c1ccc(O)cc1)OC1=C(O)[C@@H]([C@H](O)CO)OC1=O` returned an IC50 of 40 µM.
Consider `CC(C)(C)C(=O)Nc1nc(-c2ccc(O)cc2O)cs1`, for which it took 1.4 µM to reach half-maximal inhibition against Tyrosinase [1] (IC50).
In turn, `CCCCn1cc(O)c(=O)cc1C` came in with an inhibition constant (Ki) at Tyrosinase [1] of 100 µM.
The compound `COc1ccc(CCCc2ccc(O)cc2O)c(OC)c1C` had an IC50 on Mushroom tyrosinase [12] of 0.24 µM.
For `CC(=O)Nc1nc(-c2ccc(O)cc2O)cs1`, the IC50 at Tyrosinase [1] is 3.2 µM.
Still for that read-out and setting: next, `O=C(Nc1nc(-c2ccc(O)cc2O)cs1)c1ccc(CO)cc1`: 1.6 µM.
`COC1=CC(=C/C=C/C=C2C=C(OC)C(=O)C(OC)=C2)C=C(OC)C1=O` yielded an IC50 against Tyrosinase [13] of 2.5 µM.
In the case of `CCCn1cc(O)c(=O)cc1C`, at Tyrosinase [1], the Ki is 75 µM.
The compound `O=C(Nc1nc(-c2ccc(O)cc2O)cs1)c1ccccc1` yielded an IC50 against Tyrosinase [1] of 2.5 µM.
`O=C(CCc1ccc(O)c(O)c1)c1c(O)cc(O)cc1O` registered an IC50 against Tyrosinase [10] of 32 µM.
On Tyrosinase [1], `Nc1nc(-c2ccc(O)cc2O)cs1` displayed an IC50 of 51 µM.
As to `O=C(O)c1ccc(Nc2nc(-c3ccc(O)cc3O)cs2)cc1`, 2.6 µM corresponded to half-maximal inhibition at Tyrosinase [1] (IC50).
Compound `O=c1oc2ccccc2cc1O` [3-HYDROXYCOUMARIN] displayed a Ki on Tyrosinase [14] of 3.4 µM.
`O=C(O)c1ccccc1` [BENZOIC ACID]: the Ki was found to be 4.6 µM at Mushroom tyrosinase [15] and 520 µM on Tyrosinase [16].
Turning to `O=C(O)/C=C/c1ccc(O)cc1` [COUMARIC ACID], the IC50 against Tyrosinase [11] and at Tyrosinase [17] was 2 µM each time.
In the case of `COc1cc(/C=C/C(=O)CC(=O)/C=C/c2ccc(O)c(OC)c2)ccc1O` [CURCUMIN], half-maximal inhibition at Tyrosinase [18] (IC50) required 5 µM.
Compound `CCCCCCc1ccc(O)cc1O` [HEXYLRESORCINOL] had a Ki at Tyrosinase [4] of 39 µM. Besides, the IC50 is 94 µM on Tyrosinase [5] and 1.2 µM against Mushroom tyrosinase [6].
At Tyrosinase [9], `O=c1cc(-c2ccc(O)c(O)c2)oc2cc(O)cc(O)c12` [LUTEOLIN] showed an IC50 of 60 µM.
In the case of `COc1cc(/C=C/C(=O)NCCc2ccc(O)c(O)c2)ccc1O` [N-TRANS-FERULOYLDOPAMINE], on Tyrosinase [17], inhibition was half-maximal at 50 µM (IC50).
For `Oc1cccc(O)c1` [RESORCINOL], at Tyrosinase [5], the IC50 is greater than 3000 µM.
Take `Oc1ccc(/C=C/c2cc(O)cc(O)c2)cc1` [RESVERATROL]: on Tyrosinase [11], the IC50 was 9 µM.
At Tyrosinase [4], `CCCCc1ccc(O)cc1O` [RUCINOL] yielded an inhibition constant Ki of 9.1 µM. Further, the IC50 against Mushroom tyrosinase [12] turned out to be 0.6 µM.
Turning to `CCCCCCCCCCCCC/C=C1\C(=O)O[C@@](C)(OC)[C@@H]1O` [SUBAMOLIDE A], the IC50 against Tyrosinase [7] was 1 µM.
